Assay [1] relates to absorption of sodium from the intestinal lumen. The assay can be described thus: Inhibition of intestinal sodium absorption in mice. In kind it is in vivo. As to conditions: CD-1 mice, 15 mg/kg oral gavage twice daily; for Fecal fluid content (Δ from vehicle): day 3, change from vehicle group mean; for response vs control in vivo at 15 mg/kg: Mus musculus, 72 h, day 3, normalized to dietary sodium intake. How it is done: Urinary and fecal sodium excretions were measured to assess the ability of selected example compounds to inhibit the absorption of sodium from the intestinal lumen. In addition, an assessment of the absence or presence of diarrhea in response to compound treatment was made. Approximately eight-week old, male, CD-1 mice were purchased from Envigo (Livermore, Calif.), were housed 6 per cage and acclimated for at least 48 hours before study initiation. Animals were fed Harlan Teklad Global TD.160470 rodent chow (Madison, Wis.), standard laboratory rodent chow Harlan Teklad Global 2018 with the addition of 0.4% inorganic phosphorous. […] To initiate the study, mice were weighed and then individually placed in metabolic cages. Following a 3-day acclimation period to the metabolic cage, a 24-hr baseline collection of urine and feces was performed. […] Each day, measurements of body weight. 24-hour food intake, water intake, urine volume and wet fecal weight were recorded, along with any observation of diarrhea. Fecal samples were dried using a lyophilizer for at least 3 days, following which dry weight was recorded and fecal fluid content was calculated based on the difference between the wet and dry stool weights. Fecal fluid content on day 3 of compound treatment was calculated as a change from the vehicle group mean. For urine samples, the volumes were determined gravimetrically. Feces and urine were analyzed for sodium content by microwave plasma-atomic emission spectroscopy or ion chromatography, respectively. Urine samples were analyzed on an ion chromatography system (Thermo Fisher ICS-3000 or ICS-5000+) coupled with conductivity detectors. Chromatographic separation of cations was performed using an IonPac CS12A (Thermo Fisher) 2×250 mm analytical column with an isocratic elution using […] methanesulfonic acid. Concentrations were interpolated from a a standard curve (prepared in 10 mM HCl) for sodium ion based on retention time and peak area. Fecal sample analysis by Microwave Plasma Atomic Emission Spectrometry (MP-AES). Dry fecal samples were ground into a fine powder on a homogenizer and the ground samples (400-600 mg aliquots weighed) were digested with nitric acid by microwave method (Mars 6). These digested samples were diluted with 1% Nitric acid and analyzed on Agilent 4100 MP-AES. Concentrations were calculated relative to a standard curve (prepared in 1% Nitric acid) for sodium based on the signal intensity. Sodium was detected at a wavelength of 588.995 nm. Twenty-four-hour urinary sodium excretion (ma/24-hours) was calculated by multiplying urinary sodium concentration by 24-hour urine volume. Twenty-four-hour fecal sodium excretion (mg/24-hours) was calculated by multiplying fecal sodium concentration by 24-hour dry fecal weight. The urinary and fecal sodium excretion on day 3 of compound treatment were normalized to dietary sodium intake and expressed as a percentage of the vehicle mean.

The target of the next assay is T1, NHE3 (Homo sapiens, UniProt P48764).
T1 construct: expressed in transfected cells
T1 sequence (P48764 26-834): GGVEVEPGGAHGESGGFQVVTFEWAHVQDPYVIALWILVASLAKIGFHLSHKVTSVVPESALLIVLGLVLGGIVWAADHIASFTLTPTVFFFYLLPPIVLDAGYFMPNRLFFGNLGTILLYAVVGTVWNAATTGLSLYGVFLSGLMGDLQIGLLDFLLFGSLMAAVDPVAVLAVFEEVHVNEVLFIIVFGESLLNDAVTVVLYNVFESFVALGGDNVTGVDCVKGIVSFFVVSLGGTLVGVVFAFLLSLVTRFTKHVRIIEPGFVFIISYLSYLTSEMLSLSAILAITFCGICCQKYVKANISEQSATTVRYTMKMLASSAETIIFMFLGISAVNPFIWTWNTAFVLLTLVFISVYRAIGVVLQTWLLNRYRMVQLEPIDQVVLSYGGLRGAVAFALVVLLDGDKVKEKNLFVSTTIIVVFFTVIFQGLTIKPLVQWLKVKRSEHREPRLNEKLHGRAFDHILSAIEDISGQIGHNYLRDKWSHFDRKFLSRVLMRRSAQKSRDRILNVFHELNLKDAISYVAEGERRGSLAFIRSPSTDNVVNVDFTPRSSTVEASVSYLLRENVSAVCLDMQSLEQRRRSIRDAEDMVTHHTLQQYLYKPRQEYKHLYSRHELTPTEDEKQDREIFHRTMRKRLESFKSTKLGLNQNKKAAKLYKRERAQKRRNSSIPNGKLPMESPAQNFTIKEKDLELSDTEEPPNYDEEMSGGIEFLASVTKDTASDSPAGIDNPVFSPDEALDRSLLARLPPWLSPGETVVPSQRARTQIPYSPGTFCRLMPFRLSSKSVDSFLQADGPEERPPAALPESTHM
T1 sequence (Q99653 2-195 partner limits assumed): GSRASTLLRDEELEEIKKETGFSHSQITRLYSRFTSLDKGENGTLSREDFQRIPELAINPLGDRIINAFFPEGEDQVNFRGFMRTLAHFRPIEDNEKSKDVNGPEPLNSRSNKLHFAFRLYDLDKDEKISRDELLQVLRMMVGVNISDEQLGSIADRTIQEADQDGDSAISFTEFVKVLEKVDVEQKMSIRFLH
In words: Cell-based assay of NHE-3 activity (persistent inhibition), human. As to conditions: human Persistence, 60 min incubation then washout. In a few lines:
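Persistent inhibition: compound (0-30 μM, 60 min, RT, NaCl-HEPES pH 7.4) removed before assay. Human NHE3/NHERF2 PS120 cells were then BCECF-loaded during NH4Cl pulse (30 min, 37 °C), acidified in Na+-free buffer, and Na+ added 10 min after washout; antiport measured as initial fluorescence-ratio change per minute.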

[2] abbreviates: read-out: Fecal Na Excretion (% of vehicle).
Setting [3] is: read-out: Urinary Na Excretion (% of vehicle).

Read-outs that look alike come from different tables or passages of the source.

Turning to `Cc1cc(Cl)cc2c1C[C@H](N(C)C)[C@H]2Oc1ccc(S(=O)(=O)NCCOCCOCCNC(=O)NCCCCNC(=O)NCCOCCOCCNS(=O)(=O)c2ccc(O[C@H]3c4cc(Cl)cc(C)c4C[C@@H]3N(C)C)c(F)c2)cc1F` [Example 24, 3-[2-(2-[2-[(4-[[(1S,2S)-6-Chloro-2-(dimethylamino)-4-methyl-2,3-dihydro-1H-inden-1-yl]oxy]-3-fluorobenzene)sulfonamido]ethoxy]ethoxy)ethyl]-1-[4-([[2-(2-[2-[(4-[[(1S,2S)-6-chloro-2-(dimethylamino)-4-methyl-2,3-dihydro-1H-inden-1-yl]oxy]-3-fluorobenzene)sulfonamido]ethoxy]ethoxy)ethyl]carbamoyl]amino)butyl]urea], the “Fecal fluid content (Δ from vehicle)” value in assay [1] is “A (<5)”. In addition, the response vs control in vivo at 15 mg/kg is above 200% in assay [1] (setting [2]) and 50 to 70% in assay [1] (setting [3]). Also, the “% inhibition” value on NHE3 is “C (>70%)”.

On to `Cc1cc(S(=O)(=O)NCCOCCOCCNC(=O)NCCCCNC(=O)NCCOCCOCCNS(=O)(=O)c2ccc(O[C@H]3c4cc(Cl)cc(Cl)c4C[C@@H]3N3CCC[C@@H](N(C)C)C3)c(C)c2)ccc1O[C@H]1c2cc(Cl)cc(Cl)c2C[C@@H]1N1CCC[C@@H](N(C)C)C1` [Example 26, 3-[2-(2-[2-[(4-[[(1S,2S)-4,6-Dichloro-2-[(3R)-3-(dimethylamino)piperidin-1-yl]-2,3-dihydro-1H-inden-1-yl]oxy]-3-methylbenzene)sulfonamido]ethoxy]ethoxy)ethyl]-1-[4-([[2-(2-[2-[4-[[(1S,2S)-4,6-dichloro-2-[(3R)-3-(dimethylamino)piperidin-1-yl]-2,3-dihydro-1H-inden-1-yl]oxy]-3-methylbenzenesulfonamido]ethoxy]ethoxy)ethyl]carbamoyl]amino)butyl]urea; bis(trifluoroacetic acid)], for which the “Fecal fluid content (Δ from vehicle)” value in assay [1] was “B (5-10)”. Moreover, the response vs control in vivo at 15 mg/kg was 150 to 200% in assay [1] (setting [2]) and 50 to 70% in assay [1] (setting [3]). For the same molecule, the “% inhibition” value at NHE3 is “C (>70%)”.

As to `Cc1cc(Cl)cc2c1C[C@H](N1CCC[C@@H](N(C)C)C1)[C@H]2Oc1ccc(S(=O)(=O)NCCOCCOCCNC(=O)NCCCCNC(=O)NCCOCCOCCNS(=O)(=O)c2ccc(O[C@H]3c4cc(Cl)cc(C)c4C[C@@H]3N3CCC[C@@H](N(C)C)C3)cc2)cc1` [Example 28, 3-[2-(2-[2-[(4-[[(1S,2S)-6-Chloro-2-[(3R)-3-(dimethylamino)piperidin-1-yl]-4-methyl-2,3-dihydro-1H-inden-1-yl]oxy]benzene)sulfonamido]ethoxy]ethoxy)ethyl]-1-[4-([[2-(2-[2-[(4-[[(1S,2S)-6-chloro-2-[(3R)-3-(dimethylamino)piperidin-1-yl]-4-methyl-2,3-dihydro-1H-inden-1-yl]oxy]benzene)sulfonamido]ethoxy]ethoxy)ethyl]carbamoyl]amino)butyl]urea; bis(trifluoroacetic acid)], the “Fecal fluid content (Δ from vehicle)” value in assay [1] is listed as “B (5-10)”. For the same molecule, the response vs control in vivo at 15 mg/kg in assay [1] (setting [2]) was in the range of 150 to 200%. Also, the response vs control in vivo at 15 mg/kg in assay [1] (setting [3]) was above 70%. In addition, on NHE3, the “% inhibition” value is “C (>70%)” and the pIC50 result is “C (NHE3 pIC50 > 7)”.

For the molecule `Cc1cc(S(=O)(=O)NCCOCCOCCNC(=O)NCCCCNC(=O)NCCOCCOCCNS(=O)(=O)c2ccc(O[C@H]3c4cc(Cl)cc(C)c4C[C@@H]3N3CCC[C@@H](N(C)C)C3)c(C)c2)ccc1O[C@H]1c2cc(Cl)cc(C)c2C[C@@H]1N1CCC[C@@H](N(C)C)C1` [Example 29], the “Fecal fluid content (Δ from vehicle)” value in assay [1] is “A (<5)”. The response vs control in vivo at 15 mg/kg in assay [1] (setting [2]) was in the range of 150 to 200%; in assay [1] (setting [3]) it was 50 to 70%. In addition, at NHE3, the “% inhibition” value is “C (>70%)”. Also, the pIC50 result at NHE3 was “C (NHE3 pIC50 > 7)”.

Regarding `Cc1cc(Cl)cc2c1C[C@H](N1CCC[C@@H](N(C)C)C1)[C@H]2Oc1ccc(S(=O)(=O)NCCOCCOCCNC(=O)NCCCCNC(=O)NCCOCCOCCNS(=O)(=O)c2ccc(O[C@H]3c4cc(Cl)cc(C)c4C[C@@H]3N3CCC[C@@H](N(C)C)C3)c(F)c2)cc1F` [Example 30, 3-[2-(2-[2-[(4-[[(1S,2S)-6-Chloro-2-[(3R)-3-(dimethylamino)piperidin-1-yl]-4-methyl-2,3-dihydro-1H-inden-1-yl]oxy]-3-fluorobenzene)sulfonamido]ethoxy]ethoxy)ethyl]-1-[4-([[2-(2-[2-[(4-[[(1S,2S)-6-chloro-2-[(3R)-3-(dimethylamino)piperidin-1-yl]-4-methyl-2,3-dihydro-1H-inden-1-yl]oxy]-3-fluorobenzene)sulfonamido]ethoxy]ethoxy)ethyl]carbamoyl]amino)butyl]urea; bis(trifluoroacetic acid)], the “Fecal fluid content (Δ from vehicle)” value in assay [1] is “C (>10)”. Moreover, in assay [1] (setting [2]), the response vs control in vivo at 15 mg/kg was above 200%. For the same molecule, the response vs control in vivo at 15 mg/kg in assay [1] (setting [3]) fell in the range of 50 to 70%. Further, on NHE3, the “% inhibition” value is on record as “C (>70%)” and the pIC50 entry was “C (NHE3 pIC50 > 7)”.

For `O=C(NCCCCNC(=O)NCCOCCOCCNS(=O)(=O)c1ccc(O[C@H]2c3cc(Cl)cc(Cl)c3C[C@@H]2N2CCNCC2)cc1)NCCOCCOCCNS(=O)(=O)c1ccc(O[C@H]2c3cc(Cl)cc(Cl)c3C[C@@H]2N2CCNCC2)cc1` [Example 31, 3-[2-(2-[2-[(4-[[(1S,2S)-4,6-Dichloro-2-(piperazin-1-yl)-2,3-dihydro-1H-inden-1-yl]oxy]benzene)sulfonamido]ethoxy]ethoxy)ethyl]-1-[4-([[2-(2-[2-[(4-[[(1S,2S)-4,6-dichloro-2-(piperazin-1-yl)-2,3-dihydro-1H-inden-1-yl]oxy]benzene)sulfonamido]ethoxy]ethoxy)ethyl]carbamoyl]amino)butyl]urea; bis(trifluoroacetic acid)], in assay [1], the “Fecal fluid content (Δ from vehicle)” value is “B (5-10)”. For the same molecule, the figures for the response vs control in vivo at 15 mg/kg in assay [1] (setting [2]) and in assay [1] (setting [3]) were above 200% and 50 to 70%, respectively. For the same molecule, the “% inhibition” value at NHE3 was “C (>70%)”.

Source of the values: patent US11242337B2, “Compounds useful for treating gastrointestinal tract disorders” (Ardelyx, Inc., priority 2017, dated 2022).
